Values quoted from earlier work in patent US11872245B2, “Antiseptic polymer and synthesis thereof” (TRIMPH IP PTY LIMITED, priority 2015, dated 2024).

Key:
[1] = target: V3 (Homo sapiens, UniProt P05106+P06756)
[2] = target: IIb3 (Homo sapiens, UniProt P05106+P08514)
Chain of IIb3 (P08514 32-1039): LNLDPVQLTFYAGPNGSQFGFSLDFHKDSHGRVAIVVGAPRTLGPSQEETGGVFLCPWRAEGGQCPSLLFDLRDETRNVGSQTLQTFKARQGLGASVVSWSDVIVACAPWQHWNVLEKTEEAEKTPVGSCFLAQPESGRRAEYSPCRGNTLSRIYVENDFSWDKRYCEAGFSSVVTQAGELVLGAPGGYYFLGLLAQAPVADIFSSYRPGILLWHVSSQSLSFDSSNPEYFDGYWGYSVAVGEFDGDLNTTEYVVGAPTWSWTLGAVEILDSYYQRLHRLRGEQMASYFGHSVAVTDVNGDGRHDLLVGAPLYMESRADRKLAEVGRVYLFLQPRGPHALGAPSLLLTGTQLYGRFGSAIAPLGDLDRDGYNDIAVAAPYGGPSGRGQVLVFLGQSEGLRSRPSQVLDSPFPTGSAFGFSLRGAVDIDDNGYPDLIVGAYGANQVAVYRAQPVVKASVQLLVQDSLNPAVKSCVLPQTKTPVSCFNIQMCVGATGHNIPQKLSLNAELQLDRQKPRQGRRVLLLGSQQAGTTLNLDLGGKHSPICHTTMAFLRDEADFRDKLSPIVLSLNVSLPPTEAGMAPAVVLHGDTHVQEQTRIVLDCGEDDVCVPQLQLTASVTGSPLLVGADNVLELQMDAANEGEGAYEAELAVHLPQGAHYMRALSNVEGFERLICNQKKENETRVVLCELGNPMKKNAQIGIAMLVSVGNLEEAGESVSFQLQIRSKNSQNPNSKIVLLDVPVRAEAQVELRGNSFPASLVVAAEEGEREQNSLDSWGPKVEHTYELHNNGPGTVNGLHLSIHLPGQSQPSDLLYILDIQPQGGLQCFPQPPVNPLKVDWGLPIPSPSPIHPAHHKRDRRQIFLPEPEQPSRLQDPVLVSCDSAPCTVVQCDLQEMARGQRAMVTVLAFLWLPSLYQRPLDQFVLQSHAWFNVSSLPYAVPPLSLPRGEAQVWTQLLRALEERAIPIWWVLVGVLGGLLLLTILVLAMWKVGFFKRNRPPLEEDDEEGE
Chain of IIb3 (P05106 27-788): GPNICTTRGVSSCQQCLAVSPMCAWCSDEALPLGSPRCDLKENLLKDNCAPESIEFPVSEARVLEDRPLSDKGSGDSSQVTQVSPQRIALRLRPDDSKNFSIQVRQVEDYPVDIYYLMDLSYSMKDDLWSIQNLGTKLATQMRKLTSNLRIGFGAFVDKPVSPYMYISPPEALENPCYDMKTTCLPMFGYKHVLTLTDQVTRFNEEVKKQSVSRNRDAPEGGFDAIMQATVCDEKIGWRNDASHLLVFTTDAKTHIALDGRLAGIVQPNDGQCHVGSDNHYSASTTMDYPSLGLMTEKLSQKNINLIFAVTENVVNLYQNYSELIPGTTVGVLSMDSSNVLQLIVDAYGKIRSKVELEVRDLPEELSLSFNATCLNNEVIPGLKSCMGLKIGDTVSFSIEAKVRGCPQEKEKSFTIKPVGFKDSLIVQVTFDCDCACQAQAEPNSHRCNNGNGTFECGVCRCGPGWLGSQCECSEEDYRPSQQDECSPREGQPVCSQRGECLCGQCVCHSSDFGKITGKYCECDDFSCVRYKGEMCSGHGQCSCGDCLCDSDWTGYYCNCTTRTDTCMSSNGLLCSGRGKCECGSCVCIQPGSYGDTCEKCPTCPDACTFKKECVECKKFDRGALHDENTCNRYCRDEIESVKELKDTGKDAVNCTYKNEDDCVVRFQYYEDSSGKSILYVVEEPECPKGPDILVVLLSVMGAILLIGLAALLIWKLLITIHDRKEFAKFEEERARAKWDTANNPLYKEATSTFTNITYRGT

Chain of V3 (P06756 31-1048): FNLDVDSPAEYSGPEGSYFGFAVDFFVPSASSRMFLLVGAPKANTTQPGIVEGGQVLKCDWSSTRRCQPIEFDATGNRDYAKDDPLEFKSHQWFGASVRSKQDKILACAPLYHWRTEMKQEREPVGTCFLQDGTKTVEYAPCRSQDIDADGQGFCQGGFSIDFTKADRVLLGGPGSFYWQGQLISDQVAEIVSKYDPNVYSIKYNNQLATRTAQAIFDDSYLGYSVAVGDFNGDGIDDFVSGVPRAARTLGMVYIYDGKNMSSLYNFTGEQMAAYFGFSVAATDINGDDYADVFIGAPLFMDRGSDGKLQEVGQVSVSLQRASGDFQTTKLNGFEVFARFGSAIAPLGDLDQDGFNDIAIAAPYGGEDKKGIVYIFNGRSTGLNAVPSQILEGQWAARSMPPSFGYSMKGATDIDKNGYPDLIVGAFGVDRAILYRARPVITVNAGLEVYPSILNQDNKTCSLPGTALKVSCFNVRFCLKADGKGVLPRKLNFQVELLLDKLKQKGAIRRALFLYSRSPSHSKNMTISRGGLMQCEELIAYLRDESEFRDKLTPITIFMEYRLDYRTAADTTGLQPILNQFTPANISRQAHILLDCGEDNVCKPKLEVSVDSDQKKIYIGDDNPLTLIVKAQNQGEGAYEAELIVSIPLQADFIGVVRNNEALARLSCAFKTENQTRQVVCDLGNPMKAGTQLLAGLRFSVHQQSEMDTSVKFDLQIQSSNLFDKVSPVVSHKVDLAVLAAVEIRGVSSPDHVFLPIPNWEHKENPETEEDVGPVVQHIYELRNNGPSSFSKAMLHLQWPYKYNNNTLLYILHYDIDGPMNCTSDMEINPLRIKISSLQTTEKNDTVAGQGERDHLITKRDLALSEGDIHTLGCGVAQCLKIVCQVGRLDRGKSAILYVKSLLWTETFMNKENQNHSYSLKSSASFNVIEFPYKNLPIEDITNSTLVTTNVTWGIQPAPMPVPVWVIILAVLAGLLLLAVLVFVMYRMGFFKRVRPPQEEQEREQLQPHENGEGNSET
Chain of V3 (P05106 27-788): as the sequence (P05106 27-788) above

Substance: {GLY}{ARG}{GLY}{ASP}{SER} [GRGDS]
- affinity [1]: intermediate affinity
- affinity [2]: intermediate affinity
